Test results taken from patent US9249104B2, “Pyrazole indanyl carboxamides” (BAYER CROPSCIENCE AG, priority 2012, dated 2016).

Experiments:
[1] = tested on: Septoria tritici; test: In vivo preventive test on Septoria tritici (leaf spot on wheat); conditions: 500 ppm, wheat plants sprayed 24 h before contamination, graded 24 days after contamination
Description: Wheat plants (“Scipion” variety), sown in starter cups on a 50/50 peat soil-pozzolana substrate and grown at 22° C., are treated at the 1-leaf stage (10 cm height) by spraying with the active ingredient prepared as described above. Plants, used as controls, are treated with the mixture of acetone/tween/DMSO/water not containing the active material. After 24 hours, the plants are contaminated by spraying the leaves with an aqueous suspension of cryopreserved Septoria tritici spores (500 000 spores per ml). The contaminated wheat plants are incubated for 72 hours at 18° C. and at 100% relative humidity, and then for 21 days at 90% relative humidity. Grading (% of efficacy) is carried out 24 days after the contamination, in comparison with the control plants.

[2] = tested on: Fusarium nivale (var. majus); test: In vivo Fusarium nivale (var. majus) test (wheat)/preventive; conditions: 500 ppm, wheat plants, preventive, evaluated 5 days after inoculation
Description: • Solvent: 49 parts by weight of N,N-dimethylacetamide • Emulsifier: 1 part by weight of alkylaryl polyglycol ether To produce a suitable preparation of active compound, 1 part by weight of active compound or active compound combination is mixed with the stated amounts of solvent and emulsifier, and the concentrate is diluted with water to the desired concentration. To test for preventive activity, young plants are sprayed with the preparation of active compound or active compound combination at the stated rate of application. After the spray coating has been dried, the plants are slightly injured by using a sandblast and afterwards they are sprayed with a conidia suspension of Fusarium nivale (var. majus). The plants are placed in the greenhouse under a translucent incubation cabinet at a temperature of approximately 10° C. and a relative atmospheric humidity of approximately 100%.

[3] = tested on: Uromyces appendiculatus; test: In vivo preventive test on Uromyces appendiculatus (bean rust); conditions: preventive, bean plants, dose of 500 ppm, grading 11 days after contamination
Description: Bean plants (“Saxa” variety), sown in starter cups on a 50/50 peat soil-pozzolana substrate and grown at 24° C., are treated at the 2-leaf stage (9 cm height) by spraying with the active ingredient prepared as described above. Plants, used as controls, are treated with the mixture of acetone/tween/DMSO/water not containing the active material. After 24 hours, the plants are contaminated by spraying the leaves with an aqueous suspension of Uromyces appendiculatus spores (150 000 spores per ml). The spores are collected from infected plants and are suspended in water containing 2.5 ml/1 of Tween 80 at 10%. […] Grading (% of efficacy) is carried out 11 days after the contamination, in comparison with the control plants.

[4] = tested on: Puccinia recondita; test: In vivo preventive test on Puccinia recondita (brown rust on wheat); conditions: 500 ppm, wheat plants sprayed 24 h before contamination, graded 12 days after contamination
Description: Wheat plants (“Scipion” variety), sown in starter cups on a 50/50 peat soil-pozzolana substrate and grown at 22° C., are treated at the 1-leaf stage (10 cm height) by spraying with the active ingredient prepared as described above. Plants, used as controls, are treated with the mixture of acetone/tween/DMSO/water not containing the active material. After 24 hours, the plants are contaminated by spraying the leaves with an aqueous suspension of Puccinia recondita spores (100 000 spores per ml). The spores are collected from an infected plant and are suspended in water to containing 2.5 ml/l of Tween 80 at 10%. […] Grading (% of efficacy) is carried out 12 days after the contamination, in comparison with the control plants.

[5] = tested on: Phakopsora pachyrhizi; test: In vivo Phakopsora test (soybeans)/preventive; conditions: 10 ppm, soybean plants, preventive, evaluated 7 days after inoculation
Description: To produce a suitable preparation of active compound, 1 part by weight of active compound is mixed with the stated amounts of solvent and emulsifier, and the concentrate is diluted with water to the desired concentration. To test for preventive activity, young plants are sprayed with the preparation of active compound at the stated rate of application. After the spray coating has dried on, the plants are inoculated with an aqueous spore suspension of the causal agent of soybean rust (Phakopsora pachyrhizi) and stay for 24 h without light in an incubation cabinet at approximately 24° C. and a relative atmospheric humidity of 95%. The plants remain in the incubation cabinet at approximately 24° C. and a relative atmospheric humidity of approximately 80% and a day/night interval of 12 h.

[6] = logP by HPLC on reversed phase columns (EEC directive 79/831 Annex V.A8); format: physicochemical; conditions: method [a]: LC-MS at pH 2.7, 0.1% formic acid in water / acetonitrile; compounds of formula (I), Table 1
[7] = tested on: Botrytis cinerea; test: In vivo preventive test on Botrytis cinerea (grey mould); conditions: 500 ppm, gherkin plants sprayed 24 h before contamination, graded 4 to 5 days after contamination
Description: Gherkin plants (“Vert petit de Paris” variety), sown in starter cups on a 50/50 peat soil-pozzolana substrate and grown at 24° C., are treated at the Z11 cotyledon stage by spraying with the active ingredient prepared as described above. Plants, used as controls, are treated with the mixture of acetone/tween/DMSO/water not containing the active material. After 24 hours, the plants are contaminated by spraying the cotyledons with an aqueous suspension of cryopreserved Botrytis cinerea spores (50 000 spores per ml). The spores are suspended in a nutrient solution composed of 10 g/L of PDB, 50 g/L of D-Fructose, 2 g/L of NH4NO3 and 1 g/L of KH2PO4. The contaminated gherkin plants are incubated at 17° C. and at 90% relative humidity.

[8] = tested on: Sphaerotheca fuliginea; test: In vivo preventive test on Sphaerotheca fuliginea (powdery mildew on cucurbits); conditions: 500 ppm, gherkin plants sprayed 24 h before contamination, graded 12 days after contamination
Description: Gherkin plants (“Vert petit de Paris” variety), sown in starter cups on a 50/50 peat soil-pozzolana substrate and grown at 24° C., are treated at the Z11 cotyledon stage by spraying with the active ingredient prepared as described above. Plants, used as controls, are treated with the mixture of acetone/tween/DMSO/water not containing the active material. After 24 hours, the plants are contaminated by spraying the cotyledons with an aqueous suspension of Sphaerotheca fuliginea spores (100 000 spores per ml). The spores are collected from infected plants. […] Grading (% of efficacy) is carried out 12 days after the contamination, in comparison with the control plants.

[9] = tested on: Alternaria brassicae; test: In vivo preventive test on Alternaria brassicae (leaf spot on radish); conditions: 500 ppm, radish plants sprayed 24 h before contamination, graded 6 days after contamination
Description: Radish plants (“Pernod Clair” variety), sown in starter cups on a 50/50 peat soil-pozzolana substrate and grown at 17° C., are treated at the cotyledon stage by spraying with the active ingredient prepared as described above. Plants, used as controls, are treated with the mixture of acetone/tween/DMSO/water not containing the active material. After 24 hours, the plants are contaminated by spraying the cotyledons with an aqueous suspension of Alternaria brassicae spores (50 000 spores per ml). The spores are collected from a 15-day-old culture. The contaminated radish plants are incubated at 20° C. and at 100% relative humidity. Grading (% of efficacy) is carried out 6 days after the contamination, in comparison with the control plants.

[10] = tested on: Phytophthora infestans; format: in vivo; conditions: 500 ppm, tomato plants sprayed 24 h before contamination, graded 5 days after contamination
[11] = tested on: Pyrenophora teres; test: In vivo preventive test on Pyrenophora teres (net blotch on barley); conditions: 500 ppm, barley plants sprayed 24 h before contamination, graded 14 days after contamination
Description: Barley plants (“Plaisant” variety), sown in starter cups on a 50/50 peat soil-pozzolana substrate and grown at 22° C., are treated at the 1-leaf stage (10 cm height) by spraying with the active ingredient prepared as described above. Plants, used as controls, are treated with the mixture of acetone/tween/DMSO/water not containing the active material. After 24 hours, the plants are contaminated by spraying the leaves with an aqueous suspension of Pyrenophora teres spores (12 000 spores per ml). The spores are collected from a 12-day-old culture. […] Grading (% of efficacy) is carried out 14 days after the contamination, in comparison with the control plants.

Compound: CC(C)OC1Cc2cccc(NC(=O)c3cn(C)nc3C(F)F)c2C1 (stereo not shown) [Example 2]
- Eff. % [1]: 90%
- Eff. % [2]: 75%
- Eff. % [3]: 100%
- Eff. % [4]: 100%

Compound: CC1Cc2c(NC(=O)c3cn(C)nc3C(F)F)cccc2C1(C)C (stereo not shown) [Example 6]
- Eff. % [5]: 96%
- Eff. % [1]: 95%
- Eff. % [3]: 98%
- logP [6]: 3.55[a]
- Eff. % [7]: 95%
- Eff. % [8]: 100%
- Eff. % [4]: 100%

Compound: CC1c2cccc(NC(=O)c3cn(C)nc3C(F)F)c2CC1(C)C (stereo not shown) [Example 5]
- Eff. % [9]: 71%
- Eff. % [1]: 91%
- Eff. % [7]: 88%
- Eff. % [10]: 89%
- Eff. % [8]: 98%
- Eff. % [4]: 100%

Compound: CC1c2c(NC(=O)c3cn(C)nc3C(F)F)cccc2C(C)(C)C1C (stereo not shown) [Example 9]
- Eff. % [11]: 97%
- Eff. % [9]: 94%
- Eff. % [5]: 84%
- Eff. % [1]: 90%
- Eff. % [3]: 100%
- Eff. % [7]: 100%
- Eff. % [8]: 100%
- Eff. % [4]: 100%
